These results are taken from ChEMBL document CHEMBL1201862, “PubChem BioAssay data set” (2004).

The structures appear in SMILES notation.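 Growth conditions: 96-well plates. Treatment: test compound, 48 hours, 5 concentrations. Analysis: linear interpolation between bracketing concentrations; unreached endpoints set to highest concentration. GI50 is the concentration that inhibits growth by half.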 Activity calls are given as the source filed them. No stated cut-off is given here; in the data, active = GI50 up to about 1.1 µM and inactive = higher. A value given as a limit tells only on which side of the number the result lay.

What all share (assay): NCI tumour cell line growth inhibition, 48 h
Experiment [1] deals with HL-60.
Experiment [2] has as its system HOP-62.
For experiment [3], the system named is HOP-92.
In experiment [4] the test system is K562.
Experiment [5] relates to Malme-3M.
Experiment [6] deals with NCI-H23.
In experiment [7] the test system is NCI-H522.
In experiment [8] the test system is OVCAR-8.
The subject of experiment [9] is PC-3.
Experiment [10] has as its system RPMI-8226.
The subject of experiment [11] is SF-295.
Experiment [12] deals with SK-MEL-28.
Experiment [13] has as its system SK-OV-3.
For experiment [14], the system named is TK-10.
The subject of experiment [15] is UACC-62.
Experiment [16] deals with NCI-H460.
The test system of experiment [17] is SF-268.

On to `Nc1ccccc1C(=O)NNC(=O)c1ccccc1N`, for which the GI50 in [1], in experiment [2], in experiment [3], in experiment [4], in experiment [5] and in [6] was > 100 µM (inactive) each time. The GI50 in experiment [7], in [8], in experiment [9], in experiment [10], in [11] and in experiment [12] was > 100 µM (inactive) throughout. The GI50 in experiment [13], in [14] and in [15] was > 100 µM (inactive) throughout.
For the compound `CC(=O)ON(C(C)=O)c1ccc(-c2nc3ccccc3s2)cc1`, the GI50 in experiment [2] was 22 µM (inactive); in [3], 34.7 µM (inactive); in experiment [4], 41 µM (inactive); in experiment [5] it was 14.7 µM (inactive); in experiment [6] it was 26 µM (inactive); in [16], 28.4 µM (inactive). The GI50 in experiment [7] was 15.1 µM (inactive); in experiment [8] it was 21.2 µM (inactive); in [9], 50.6 µM (inactive); in [10] it was 18.3 µM (inactive); in experiment [17] it was 24.7 µM (inactive); in experiment [11] it was 30.1 µM (inactive). Further, the GI50 in experiment [12] is 31.8 µM (inactive); in experiment [13] it was 31.3 µM (inactive); in experiment [14], 34.4 µM (inactive); in experiment [15], 20.9 µM (inactive).
For `CN(C)Cc1nsc(N(C)C)n1`, the GI50 in experiment [2], in experiment [3], in experiment [4], in experiment [5], in experiment [6] and in experiment [16] was > 100 µM (inactive) throughout. The GI50 in [7], in experiment [8], in experiment [9], in experiment [10], in [17] and in experiment [11] was > 100 µM (inactive) throughout. Moreover, the GI50 in experiment [12], in experiment [13], in experiment [14] and in experiment [15] was > 100 µM (inactive) in each case.
`Cc1ccc(S[C@@H](C)[C@@](O)(CF)CN(Cc2ccccc2)C(=O)C(F)(F)F)cc1`: the GI50 in experiment [1] is 19.2 µM (inactive); in [3] it was 4.65 µM (inactive); in [5], 20.9 µM (inactive); in [6], 18.4 µM (inactive); in [16], 15.5 µM (inactive); in [7], > 100 µM (inactive). Moreover, the GI50 in experiment [8] was 5.09 µM (inactive); in [9] it was 29.1 µM (inactive); in experiment [17], 33.2 µM (inactive); in experiment [12] it was > 100 µM (inactive); in [14], 35.2 µM (inactive); in experiment [15], 13.8 µM (inactive).
In the case of `C=C(C)C1CCC2=CC(CC3(C)OC3C3=CC(C(=O)OC)=C(C1)O3)OC2=O` (stereo not given), the GI50 was > 10 µM (inactive) in experiment [1]; > 100 µM (inactive) in experiment [2]; 88.3 µM (inactive) in experiment [3]; > 100 µM (inactive) in experiment [4]; > 100 µM (inactive) in experiment [5]; > 100 µM (inactive) in experiment [6]. Besides, the GI50 is > 100 µM (inactive) in experiment [16]; 85.9 µM (inactive) in experiment [7]; > 100 µM (inactive) in [8]; > 100 µM (inactive) in experiment [9]; > 100 µM (inactive) in [17]; > 100 µM (inactive) in [11]. The GI50 in experiment [12] and in experiment [14] was > 100 µM (inactive) throughout.
Take `CCCCCCCC/C=C\CCCCCCC/C=C1\C[C@](/C=C/C(=O)OC)(CO)OC1=O`: the GI50 in [1] was 2.15 µM (inactive); in [2], 1.86 µM (inactive); in experiment [3], 2.94 µM (inactive); in experiment [4], 0.662 µM (active); in experiment [5], 1.4 µM (inactive); in experiment [6], 3.71 µM (inactive). Besides, the GI50 in [16] was 3.44 µM (inactive); in [7], 2.58 µM (inactive); in experiment [8], 2.59 µM (inactive); in experiment [9] it was 1.79 µM (inactive); in [17], 1.96 µM (inactive); in [11], 2.23 µM (inactive). Besides, the GI50 in experiment [12] is 1.6 µM (inactive); in experiment [13], 6.3 µM (inactive); in experiment [14], 1.93 µM (inactive); in experiment [15] it was 6.85 µM (inactive).
With `Cc1ccc(S(=O)(=O)N2CCCSCCSCCCSCC2)cc1`, the GI50 in experiment [1], in experiment [2], in [3], in [4], in experiment [6] and in experiment [16] was > 100 µM (inactive) throughout. The GI50 in [7], in experiment [8], in [9], in experiment [17], in experiment [11] and in experiment [12] was > 100 µM (inactive) throughout. For the same compound, the GI50 in experiment [13], in experiment [14] and in experiment [15] was > 100 µM (inactive) throughout.
Take `CN/C(=N\c1ccc(OC)c2ccccc12)SC`: the GI50 in experiment [1], in experiment [2], in experiment [3], in experiment [4], in [5] and in experiment [6] was > 10 µM (inactive) throughout. For the same compound, the GI50 was > 10 µM (inactive) in [7]; > 10 µM (inactive) in experiment [8]; > 10 µM (inactive) in [9]; > 10 µM (inactive) in [10]; > 10 µM (inactive) in experiment [17]; 7.43 µM (inactive) in experiment [11]. The GI50 in experiment [12], in [13], in experiment [14] and in [15] was > 10 µM (inactive) throughout.
With `O=C1CCCCC1CN1CCCCC1` (stereo not given), the GI50 in experiment [1], in experiment [2], in experiment [3], in experiment [4], in experiment [5] and in [6] was > 100 µM (inactive) in each case. The GI50 in [16] was > 100 µM (inactive); in experiment [7], 1.91 µM (inactive); in [8], > 100 µM (inactive); in [9], > 100 µM (inactive); in experiment [17] it was > 100 µM (inactive); in experiment [11], > 100 µM (inactive). For the same compound, the GI50 in experiment [12], in [13], in experiment [14] and in [15] was > 100 µM (inactive) throughout.
For the compound `CCCN(CCc1ccc(-c2ccccc2)cc1)CCc1ccc2nn[nH]c2c1`, the GI50 in experiment [2] was 12.5 µM (inactive); in experiment [3], 5.37 µM (inactive); in experiment [4], 2.94 µM (inactive); in experiment [5], 8.79 µM (inactive); in experiment [6] it was 12.2 µM (inactive); in experiment [16], 8.51 µM (inactive). For the same compound, the GI50 is 11.8 µM (inactive) in experiment [7]; 13.7 µM (inactive) in [8]; 9.44 µM (inactive) in [9]; 4.52 µM (inactive) in [10]; 19.2 µM (inactive) in [17]; 12 µM (inactive) in [11]. The GI50 in [12] was 4.31 µM (inactive); in experiment [13], 14.2 µM (inactive); in experiment [14], 11.5 µM (inactive); in experiment [15], 9.23 µM (inactive).
Take `CC(=O)CC(O)(C(F)(F)Cl)C(F)(Cl)Cl` (stereo not given): the GI50 in experiment [1], in experiment [2], in [3], in experiment [4], in [5] and in experiment [6] was > 10 µM (inactive) each time. For the same compound, the GI50 in experiment [16], in [7], in [8], in experiment [9], in [17] and in experiment [11] was > 10 µM (inactive) throughout. The GI50 in experiment [12], in experiment [13], in experiment [14] and in experiment [15] was > 10 µM (inactive) throughout.
Take `O=S(=O)(c1ccccc1)n1c2cc3cccnc3nc2c2cccnc21`: the GI50 is 17.9 µM (inactive) in experiment [1]; 60 µM (inactive) in [2]; 21.1 µM (inactive) in [3]; 17.3 µM (inactive) in experiment [4]; > 100 µM (inactive) in experiment [5]; 44.9 µM (inactive) in experiment [6]. The GI50 in [16] was 36.9 µM (inactive); in [7], 33.3 µM (inactive); in [8] it was 74.1 µM (inactive); in [9] it was 97.9 µM (inactive); in experiment [10], 18.5 µM (inactive); in [17], 56.8 µM (inactive). In addition, the GI50 in experiment [11] was 49.8 µM (inactive); in [12] it was > 100 µM (inactive); in [13] it was > 100 µM (inactive); in experiment [14] it was > 100 µM (inactive).
`C=CC(C)(C)n1cc(C2=C(O)C(=O)C(c3c(CC=C(C)C)[nH]c4ccccc34)=C(O)C2=O)c2ccccc21`: the GI50 in experiment [1] is 1.86 µM (inactive); in experiment [2], 1.25 µM (inactive); in experiment [3], 1.46 µM (inactive); in experiment [4] it was 0.476 µM (active); in [5], 1.82 µM (inactive); in experiment [6], 3.03 µM (inactive). The GI50 in experiment [16] is 1.52 µM (inactive); in experiment [7] it was 2.3 µM (inactive); in experiment [8] it was 1.3 µM (inactive); in experiment [9] it was 1.73 µM (inactive); in experiment [10] it was 1.64 µM (inactive); in experiment [17], 0.548 µM (active). In addition, the GI50 is 1.58 µM (inactive) in experiment [11], 0.575 µM (active) in [12], 2.14 µM (inactive) in [13] and 0.34 µM (active) in [15].
